In PMC4088952 (Psychoneuroendocrinology, 2014):
“And” between values parts separate entries of the source, which are not always exact repeats. Equal entries are not always repeated.

Columns and labels:
subjective drug effects = assay: Drug Effects Questionnaire; type: in vivo, humans; conditions: oral MDMA; all subjective ratings (DEQ and VAS)
plasma OT levels = assay: Plasma oxytocin levels after oral MDMA; type: in vivo, humans
[1] = system: heart rate and blood pressure; assay: Cardiovascular measures; type: in vivo, humans; conditions: intranasal oxytocin 20 IU or 40 IU versus placebo

SMILES: CNC(C)Cc1ccc2c(c1)OCO2 (racemic) [MDMA, ±3,4-methylenedioxymethamphetamine]
- time of peak effects on all subjective ratings after capsule ingestion (subjective drug effects): 60 to 120 min
- plasma OT levels compared to placebo (plasma OT levels; oral MDMA 0.75 mg/kg, N=14, t[13] = 2.96, p = 0.07): slightly increased compared to placebo but this difference did not reach significance
- duration of plasma OT elevation (plasma OT levels; oral MDMA 1.5 mg/kg): 3 h
- time of mean peak plasma OT concentration after capsule ingestion (plasma OT levels; oral MDMA 1.5 mg/kg, N=14): 90 to 120 min and 120 min
- time to significantly elevated plasma OT following capsule administration (plasma OT levels; oral MDMA 1.5 mg/kg, first time point): ≤ 60 min

SMILES: CC[C@H](C)[C@@H]1NC(=O)[C@H](Cc2ccc(O)cc2)NC(=O)[C@@H](N)CSSC[C@@H](C(=O)N2CCC[C@H]2C(=O)N[C@@H](CC(C)C)C(=O)NCC(N)=O)NC(=O)[C@H](CC(N)=O)NC(=O)[C@H](CCC(N)=O)NC1=O [Oxytocin, oxytocin]
- plasma OT levels compared to placebo (intranasal oxytocin 20 IU, N=6): did not observe an increase in plasma OT
- duration of plasma OT elevation (intranasal oxytocin 40 IU): 30 min
- time of peak plasma OT after nasal spray administration (intranasal oxytocin 40 IU, N=8): 30 to 60 min
- cardiovascular and subjective effects [1]: no cardiovascular or subjective effects
